Measurements: patent US20150306269A1, “UPSTREAM HYDROGEN PEROXIDE […]” (The Vincit Company, LLC, priority 2014, published 2015)

Tests used:
[1] = system: bacteria; experiment: Egg shell testing: total plate count of inoculated egg shells after exposure to treated air; format: cell-based; details: half egg shells inoculated in broth with about seven log bacteria; 10 minutes exposure; nebulized 3% hydrogen peroxide; swab plated on Tryptic Soy Agar, 24 hours
Description: In preliminary testing, twelve store-bought fresh eggs were prepared by blowing out the contents and cutting the egg shells in half. Twenty-four half shells were inoculated by submersion in a broth solution containing about a seven log concentration bacteria. Egg shells were removed and allowed to air dry. […] The final six shells were designated the control group and were exposed only to untreated air circulated though the sanitation system. The twenty-four half shells were allowed to be exposed to their respective situation for a period of 10 minutes.
Immediately following treatment, approximately 1 square inch swab samples were taken from the surface of each egg shell then serially diluted and plated on Tryptic Soy Agar and incubated for 24 hours to obtain a total plate count.

[2] = system: bacteria; experiment: Chicken wings: total plate count of inoculated chicken wing skin after exposure to treated air; format: cell-based; details: chicken wings inoculated in Tryptic Soy Broth with about seven log bacteria; maximum over 10, 30, 45 and 60 seconds treatment; nebulized 3% hydrogen peroxide; Tryptic Soy Agar, 24 hours
Description: Similar testing was performed on chicken wings. Twenty-four store-bought chicken wings were prepared by submersing them in a Tryptic Soy Broth broth solution containing about a seven log concentration of bacteria. The wings were removed and allowed to air dry. The wings were separated into groups of six, one group designated to be exposed to air running through the air sanitation system containing only nebulized 3% hydrogen peroxide, another group exposed to UV light-generated radicals, and the last group exposed to both 3% H2O2 and UV radicals. The final six wings were designated the control group and were exposed only to untreated air circulated though the sanitation system.
Immediately following treatment at times of 10 seconds, 30 seconds, 45 seconds and 60 seconds, approximately 1 square inch of skin on each wing was swabbed with moistened sample sponges. The sponges were stomached in phosphate buffer solution for 2 minutes, then the buffer solution was serially diluted and plated on Tryptic Soy Agar and incubated for 24 hours to obtain a total plate count.

In the case of `OO` [H2O2, hydrogen peroxide], the “log10 reduction (total plate count)” value [1] is reported as 1.5 log10 and the “maximum log10 reduction (total plate count)” value [2] is reported as 0.9 log10.
